Test results taken from the NIST ThermoML archive (doi:10.1016/j.tca.2014.08.033).
Numbers after ± are expanded uncertainties.

Conditions: Liquid, DSC

c1cncc(C2CCCCN2)c1 (configuration not stated) [(.+-.)-anabasine]
Conditions | vapor or sublimation pressure [kPa]
478 K | 14.95 ± 1.2
488 K | 19.9 ± 1.6
502.9 K | 29.84 ± 2.3
523 K | 49.73 ± 3.9
543.5 K | 79.59 ± 6.2
555.1 K | 99.57 ± 7.7
602.5 K | 248.35 ± 19
631.3 K | 398.33 ± 31
640.7 K | 468.91 ± 36
644.3 K | 498.63 ± 39

CCCCCCCCCCCCCCCC [hexadecane]
Conditions | vapor or sublimation pressure [kPa]
486.1 K | 14.78 ± 1.2
529.6 K | 49.76 ± 3.9
549.3 K | 79.6 ± 6.2
560.5 K | 101.35 ± 7.9
560.9 K | 102.04 ± 7.9

Cc1ccccc1 [toluene]
Conditions | vapor or sublimation pressure [kPa]
327.6 K | 14.9 ± 1.2
360.7 K | 49.6 ± 3.9
375.8 K | 79.3 ± 6.2
383.5 K | 100.66 ± 7.8
384.3 K | 102.73 ± 8
451 K | 498.3 ± 39
451.5 K | 499.9 ± 39
490.4 K | 1009.3 ± 78

CN1CCC[C@H]1c1cccnc1 [(-)-3-(N-methylpyrrolidino)pyridine]
Conditions | vapor or sublimation pressure [kPa]
447.7 K | 14.96 ± 1.2
457.2 K | 19.93 ± 1.6
471.1 K | 29.87 ± 2.3
490.6 K | 49.83 ± 3.9
510.1 K | 79.61 ± 6.2
520.4 K | 99.84 ± 7.7
566.4 K | 247.84 ± 19
594.8 K | 397.81 ± 31
609.3 K | 500.02 ± 39
617.8 K | 568.97 ± 44

O [water]
Conditions | vapor or sublimation pressure [kPa]
354.7 K | 49.7 ± 3.9
366.85 K | 79.6 ± 6.2
373.47 K | 100.66 ± 7.8
406.69 K | 298.53 ± 23
425.39 K | 498.99 ± 39

CN1C(=O)CC[C@H]1c1cccnc1 [(S)-cotinine]
Conditions | vapor or sublimation pressure [kPa]
537.7 K | 14.95 ± 1.2
548.4 K | 19.9 ± 1.6
564.2 K | 29.82 ± 2.3
585.6 K | 49.74 ± 3.9
601.3 K | 69.56 ± 5.4
607.4 K | 79.5 ± 6.2
619.2 K | 101.32 ± 7.9
655.4 K | 197.04 ± 15
669.7 K | 247.52 ± 19
